Measured values published in patent US6803378B2, “HIV integrase inhibitors” (Bristol-Myers Squibb Company, priority 2000, dated 2004).

target: T1, HIV-1 integrase (Human immunodeficiency virus type 1 group M subtype B, UniProt P04585); assay: In vitro activity against integrase, Method A (immobilized precleaved substrate DNA, biotinylated target DNA, 96 well plate); assay type: biochemical; conditions: Assay Method A, read-out: Percent inhibition of HIV Integrase at 70 uM
T1 construct: Purified recombinant HIV-1 integrase was incubated with immobilized precleaved substrate DNA
Protocol: The in vitro activities, against integrase, of compounds of the present invention were measured by one of the following three methods.
In Method A, the in vitro activity against integrase was measured in a manner which was similar to previously disclosed methods (cf. Hazuda, D. J.; Felock, P.; Witmer, M.; Wolfe, A.; Stillmock, K.; Grobler, J. A.; Espeseth, A.; Gabryelski, L.; Schleif, W.; Blau, C.; Miller, M. D. Science, 2000, 287, 646) Purified recombinant HIV-1 integrase was incubated with immobilized precleaved substrate DNA in a 96 well plate for 20 min at 37° C. After the integration complex was formed, compounds at desired concentrations were added to the wells followed by a 10 min incubation at 37° C. Biotinyted Target DNA was then added and the reaction was carried out for an additional 1 hour at 37° C. Wells were then washed thoroughly to remove any free DNA and integration activity was measured by using a commercial kit to quantitate the amount of biotinyted target DNA integrated into the substrate.

Row | Compound | inhibition at 70 µM [%]
1 | CN(Cc1ccc(OCc2ccc(F)cc2)cc1)C(=O)/C=C(\O)C(=O)O [Compound 1, 3-{[4-(4-Fluoro-benzyloxy)-benzyl]-methyl-carbamoyl}-2-hydroxy-acrylic acid] | 40
2 | CN(Cc1cccc(Cc2ccc(F)cc2)c1)C(=O)/C=C(\O)C(=O)O [Compound 2, 3-{[3-(4-Fluoro-benzyl)-benzyl]-methyl-carbamoyl}-2-hydroxy-acrylic acid] | 88
3 | CN(Cc1cccc(OCc2ccc(F)cc2)c1)C(=O)/C=C(\O)C(=O)O [Compound 3, 3-{[3-(4-Fluoro-benzyloxy)-benzyl]-methyl-carbamoyl}-2-hydroxy-acrylic acid] | 99
4 | CN(C(=O)/C=C(\O)C(=O)O)C(c1ccc(Cl)cc1)c1ccc(Cl)cc1 [Compound 4, 3-{[Bis-(4-chloro-phenyl)-methyl]-methyl-carbamoyl}-2-hydroxy-acrylic acid] | 90
5 | CN(C(=O)/C=C(\O)C(=O)O)C(c1ccc(F)cc1)c1ccc(F)cc1 [Compound 5, 3-{[Bis-(4-fluoro-phenyl)-methyl]-methyl-carbamoyl}-2-hydroxy-acrylic acid] | 65
6 | COc1ccc(C(c2ccc(OC)cc2)N(C)C(=O)/C=C(\O)C(=O)O)cc1 [Compound 6, 3-{[Bis-(4-methoxy-phenyl)-methyl]-methyl-carbamoyl}-2-hydroxy-acrylic acid] | 75
7 | CN(C(=O)/C=C(\O)C(=O)O)C(c1ccccc1)c1ccccc1 [Compound 7, 3-(Benzhydryl-methyl-carbamoyl)-2-hydroxy-acrylic acid] | 32
8 | CN(Cc1ccccc1Br)C(=O)/C=C(\O)C(=O)O [Compound 12, 3-[(2-Bromo-benzyl)-methyl-carbamoyl]-2-hydroxy-acrylic acid] | 85
9 | O=C(O)/C(O)=C/C(=O)N(CCc1ccccc1)Cc1ccccc1 [Compound 13, 3-(Benzyl-phenethyl-carbamoyl)-2-hydroxy-acrylic acid] | 94
10 | CN(Cc1csc2ccc(Cl)cc12)C(=O)/C=C(\O)C(=O)O [Compound 15, 3-[(5-Chloro-benzo[b]thiophen-3-ylmethyl)-methyl-carbamoyl]-2-hydroxy-acrylic acid] | 97
11 | CN(Cc1ccccc1)C(=O)/C=C(\O)C(=O)O [Compound 17, 3-(Benzyl-methyl-carbamoyl)-2-hydroxy-acrylic acid] | 89.5
12 | O=C(O)/C(O)=C/C(=O)N(CCc1ccc(F)cc1)Cc1ccccc1Cl [Compound 18, 3-{(2-Chloro-benzyl)-[2-(4-fluoro-phenyl)-ethyl]-carbamoyl}-2-hydroxy-acrylic acid] | 89.5
13 | O=C(O)/C(O)=C/C(=O)N(Cc1ccc(F)cc1)Cc1ccccc1Cl [Compound 19, 3-[(2-Chloro-benzyl)-(4-fluoro-benzyl)-carbamoyl]-2-hydroxy-acrylic acid] | 96.5
14 | O=C(O)/C(O)=C/C(=O)N(CCc1ccc(F)cc1)Cc1csc2ccc(Cl)cc12 [Compound 20, 3-{(5-Chloro-benzo[b]thiophen-3-ylmethyl)-[2-(4-fluoro-phenyl)-ethyl]-carbamoyl}-2-hydroxy-acrylic acid] | 97.5
15 | O=C(O)/C(O)=C/C(=O)N(Cc1ccc(F)cc1)Cc1csc2ccc(Cl)cc12 [Compound 21, 3-[(5-Chloro-benzo[b]thiophen-3-ylmethyl)7(4-fluoro-benzyl)-carbamoyl]-2-hydroxy-acrylic acid] | 98
16 | CN(CCc1ccc(F)cc1)C(=O)/C=C(\O)C(=O)O [Compound 22, 3-{[2-(4-Fluoro-phenyl)-ethyl]-methyl-carbamoyl}-2-hydroxy-acrylic acid] | 75
17 | CC(c1ccccc1)N(Cc1ccc(F)cc1)C(=O)/C=C(\O)C(=O)O (centres unmarked) [Compound 23, 3-[(4-Fluoro-benzyl)-(1-phenyl-ethyl)-carbamoyl]-2-hydroxy-acrylic acid] | 55
18 | O=C(O)/C(O)=C/C(=O)N(Cc1ccc(F)cc1)Cc1ccc(Cl)cc1 [Compound 24, 3-[(4-Chloro-benzyl)-(4-fluoro-benzyl)-carbamoyl]-2-hydroxy-acrylic acid] | 90
19 | O=C(O)/C(O)=C/C(=O)N(Cc1ccc(F)cc1)Cc1ccc(F)cc1F [Compound 25, 3-[(2,4-Difluoro-benzyl)-(4-fluoro-benzyl)-carbamoyl]-2-hydroxy-acrylic acid] | 96.5
20 | O=C(O)/C(O)=C/C(=O)N(Cc1ccc(F)cc1)Cc1ccc(F)c(F)c1 [Compound 26, 3-[(3,4-Difluoro-benzyl)-(4-fluoro-benzyl)-carbamoyl]-2-hydroxy-acrylic acid] | 97
21 | CC(C)(C)N(Cc1ccc(F)cc1)C(=O)/C=C(\O)C(=O)O [Compound 27, 3-[tert-Butyl-(4-fluoro-benzyl)-carbamoyl]-2-hydroxy-acrylic acid] | 33.5

Row | Compound | inhibition at 70 µM [%]
22 | O=C(O)/C(O)=C/C(=O)N(Cc1ccc(F)cc1)Cc1cccc(Cl)c1 [Compound 28, 3-[(3-Chloro-benzyl)-(4-fluoro-benzyl)-carbamoyl]-2-hydroxy-acrylic acid] | 96.5
23 | CC(C)N(Cc1ccc(F)cc1)C(=O)/C=C(\O)C(=O)O [Compound 29, 3-[(4-Fluoro-benzyl)-isopropyl-carbamoyl]-2-hydroxy-acrylic acid] | 38
24 | Cc1ccc(CN(C)C(=O)/C=C(\O)C(=O)O)cc1 [Compound 30, 2-Hydroxy-3-[methyl-(4-methyl-benzyl)-carbamoyl]-acrylic acid] | 84
25 | COc1ccc(CN(C)C(=O)/C=C(\O)C(=O)O)cc1 [Compound 31, 2-Hydroxy-3-[(4-methoxy-benzyl)-methyl-carbamoyl]-acrylic acid] | 82
26 | CCN(Cc1ccc(F)cc1)C(=O)/C=C(\O)C(=O)O [Compound 32, 3-[Ethyl-(4-fluoro-benzyl)-carbamoyl]-2-hydroxy-acrylic acid] | 93
27 | COc1cccc(CN(C)C(=O)/C=C(\O)C(=O)O)c1 [Compound 33, 2-Hydroxy-3-[(3-methoxy-benzyl)-methyl-carbamoyl]-acrylic acid] | 90
28 | CN(Cc1cccc(-c2ccccc2)c1)C(=O)/C=C(\O)C(=O)O [Compound 34, 3-(Biphenyl-3-ylmethyl-methyl-carbamoyl)-2-hydroxy-acrylic acid] | 85
29 | COc1ccc(CN(Cc2ccc(F)cc2)C(=O)/C=C(\O)C(=O)O)c(OC)c1 [Compound 35, 3-[(2,4-Dimethoxy-benzyl)-(4-fluoro-benzyl)-carbamoyl]-2-hydroxy-acrylic acid] | 95.5
30 | CN(Cc1ccc(OCc2ccccc2)cc1)C(=O)/C=C(\O)C(=O)O [Compound 36, 3-[(4-Benzyloxy-benzyl)-methyl-carbamoyl]-2-hydroxy-acrylic acid] | 30
31 | CN(Cc1cccc(C(F)(F)F)c1)C(=O)/C=C(\O)C(=O)O [Compound 37, 2-Hydroxy-3-[methyl-(3-trifluoromethyl-benzyl)-carbamoyl]-acrylic acid] | 82.5
32 | CN(Cc1ccccc1F)C(=O)/C=C(\O)C(=O)O [Compound 38, 3-[(2-Fluoro-benzyl)-methyl-carbamoyl]-2-hydroxy-acrylic acid] | 70
33 | CN(Cc1ccccc1-c1ccccc1)C(=O)/C=C(\O)C(=O)O [Compound 39, 3-(Biphenyl-2-ylmethyl-methyl-carbamoyl)-2-hydroxy-acrylic acid] | 85
34 | CN(Cc1cccc(F)c1)C(=O)/C=C(\O)C(=O)O [Compound 40, 3-[(3-Fluoro-benzyl)-methyl-carbamoyl]-2-hydroxy-acrylic acid] | 90
35 | CN(Cc1ccc(F)c2ccccc12)C(=O)/C=C(\O)C(=O)O [Compound 41, 3-[(4-Fluoro-naphthalen-1-ylmethyl)-methyl-carbamoyl]-2-hydroxy-acrylic acid] | 95
36 | COCCN(Cc1ccc(F)cc1)C(=O)/C=C(\O)C(=O)O [Compound 42, 3-[(4-Fluoro-benzyl)-(2-methoxy-ethyl)-carbamoyl]-2-hydroxy-acrylic acid] | 91
37 | O=C(O)/C(O)=C/C(=O)N(CCCc1ccccc1)Cc1ccc(F)cc1 [Compound 43, 3-[(4-Fluoro-benzyl)-(3-phenyl-propyl)-carbamoyl]-2-hydroxy-acrylic acid] | 93.5
38 | CN(C(=O)/C=C(\O)C(=O)O)C(c1ccc(F)cc1)c1cccnc1 (centres unmarked) [Compound 77, 3-{[(4-Fluoro-phenyl)-pyridin-3-yl-methyl]-methyl-carbamoyl}-2-hydroxy-acrylic acid] | 60
39 | CN(Cc1ccccc1OCc1ccc(F)cc1)C(=O)/C=C(\O)C(=O)O [Compound 82, 3-{[2-(4-Fluoro-benzyloxy)-benzyl]-methyl-carbamoyl}-2-hydroxy-acrylic acid] | 80
40 | O=C(O)/C(O)=C/C(=O)N(Cc1ccc(F)cc1)c1ccc(F)cc1OCc1ccc(F)cc1 [Compound 88, 3-{(4-Fluoro-benzyl)-[4-fluoro-2-(4-fluoro-benzyloxy)-phenyl]-carbamoyl}-2-hydroxy-acrylic acid] | 90
41 | O=C(O)CNC(=O)/C(O)=C/C(=O)N(Cc1ccc(F)cc1)Cc1ccc(F)cc1 [Compound 145, {3-[Bis-(4-fluoro-benzyl)-carbamoyl]-2-hydroxy-acryloylamino}-acetic acid] | 95
